The subject of one data set is EC spheroids. The data set can be described thus: In vitro EC spheroid sprouting assay. In kind it is cell-based. The text has this: (§1) In angiogenic EC monolayers, CPT1a knock down (KD) reduced EC proliferation by 40% as measured by ^3H thymidine incorporation (see FIG. 2). Furthermore, CPT1a KD EC were found more frequently in the G0/G1 phase of the cell cycle. EC migration on the other hand was not affected as measured by scratch wound assay and modified Boyden chamber even when proliferation was blocked using mitomycin C (see FIG. 3). To study the effect of CPT1a KD on vessel sprouting, an in vitro EC spheroid sprouting assay was employed. In this model, EC are cultured in suspension to form spheroids in hanging drops, embedded in a collagen I matrix and subsequently stimulated with growth factors to allow sprouts to be formed. In this model, a tip cell with filopodia leads the sprout while the stalk cells trail behind and proliferate to elongate the sprout. […] To further investigate this observation, a mosaic spheroid model was employed to assess tip cell competition. Here, 50% WT^RED and 50% WT^GFP cells are mixed and, when the spheroids have sprouted, which one is at the tip is determined. In this model, tip cell position can be determined via migration and/or proliferation. In case of a WT/WT mixture, 50% green and 50% red cells are at the tip. However, when 50% WT^RED cells are mixed with 50% CPT1a^KD/GFP cells, less green cells were present at the tip. This effect was abrogated when spheroids were treated with mitomycin C.

The subject of data set [1] is choroidal neovascularization (CNV) in male C57BL/6 mice. The data set can be described thus: Laser-induced choroidal neovascularization (CNV) model. As to conditions: 35 mg/kg i.p. daily, two weeks, vs vehicle. The class given is in vivo. The source says:
The protein extravasation and hemorrhage associated with choroidal neovascularization (CNV) are primary causes of severe vision loss in retinal diseases such as age-related macular degeneration (ARMD). In ARMD the normal barrier function of Bruch's membrane is compromised, and CNV can develop, either under the retinal pigment epithelium (RPE) or photoreceptor outer segments. The choroidal neovascularization model serves as a reliable disease model for macular degeneration. Choroidal neovascularization (CNV) is induced in mice by laser burn. Laser burn (400 mW) is performed with Alcon PUREPOINT® equipment. CNV is measured by investigators masked to treatment. Eyes are enucleated after retrobulbar perfusion with FITC-dextran (HMW) and flat mounted. The CNV area, total lesion area, and their ratio are analyzed using Zeiss Axio Imager Z1 microscope with macros (KS300 image analysis software) on FITC-perfused (200 μL; 25 mg/mL; 10 minutes) flat mounts. The intraocular administration of siRNAs directed against CPT1a or the use of chemical inhibitors against CPT1a, is carried out, prior to or shortly after the induction of the laser burn, in the above-described murine model for age-related macular degeneration. […]

Data set [2] in a line: Tolerability in etomoxir-treated pups (body weight, heart H&E staining). The class given is in vivo, mice.
Data set [3] can be described thus: Palmitate uptake and incorporation in organs. In kind it is in vivo, mice. The conditions noted are these: pups.
A further data set deals with T1, CPT1a (Homo sapiens, UniProt P50416).
T1 construct: of the three isoforms, CPTla is the most abundant in ECs; endogenous in cells; host or cells: endothelial cells (ECs)
T1 sequence (P50416 1-773): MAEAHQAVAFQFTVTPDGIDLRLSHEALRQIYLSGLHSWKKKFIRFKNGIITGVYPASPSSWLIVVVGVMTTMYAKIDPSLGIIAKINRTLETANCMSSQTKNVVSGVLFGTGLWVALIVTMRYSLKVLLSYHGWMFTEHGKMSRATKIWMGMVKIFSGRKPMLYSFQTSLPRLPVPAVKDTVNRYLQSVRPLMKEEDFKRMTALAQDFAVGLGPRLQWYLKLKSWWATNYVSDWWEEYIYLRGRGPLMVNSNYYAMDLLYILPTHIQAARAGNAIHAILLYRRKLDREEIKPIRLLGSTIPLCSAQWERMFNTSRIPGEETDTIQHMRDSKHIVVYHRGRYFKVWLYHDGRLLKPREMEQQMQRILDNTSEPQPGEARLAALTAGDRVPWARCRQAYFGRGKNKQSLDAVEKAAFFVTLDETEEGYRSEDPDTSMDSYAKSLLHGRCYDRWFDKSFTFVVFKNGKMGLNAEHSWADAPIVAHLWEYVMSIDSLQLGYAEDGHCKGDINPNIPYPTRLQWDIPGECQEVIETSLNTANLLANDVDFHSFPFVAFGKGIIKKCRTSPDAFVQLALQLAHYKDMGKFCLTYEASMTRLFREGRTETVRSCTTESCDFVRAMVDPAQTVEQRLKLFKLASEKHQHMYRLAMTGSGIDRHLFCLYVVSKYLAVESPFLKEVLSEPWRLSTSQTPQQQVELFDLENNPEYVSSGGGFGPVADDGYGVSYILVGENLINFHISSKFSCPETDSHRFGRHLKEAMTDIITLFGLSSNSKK
The data set can be described thus: CPT1a protein levels after shRNA knock down in ECs. In kind it is cell-based. The text has this:
(§2) CPT1 enzymes are rate limiting for fatty acid oxidation and, of the three isoforms, CPTla is the most abundant in ECs. To explore the functional relevance of CPT1a in ECs, its expression was compared in quiescent versus angiogenic EC monolayers. Strikingly, CPT1a RNA and protein levels were increased during contact inhibition—an in vitro model of quiescence—when compared to proliferating/migrating ECs. […] To correlate these expression levels to functional relevance, fatty acid oxidation was measured using a ^3H-9,10-palmitic acid tracer. […] To confirm that fatty acid oxidation in ECs is primarily CPT1a driven, its expression was blocked using a shRNA directed against CPT1a. The shRNA sequence used was 5′-[…] […]-3′ (SEQ ID NO:1).
(§3) Even more, using notch signaling as a model of quiescence, the notch-induced increase in FAO was abrogated upon CPT1a KD.

The test system of a further data set is angiogenic EC monolayers. The experiment in a line: 3H thymidine incorporation assay (EC proliferation). In kind it is cell-based.
Text: as §1, with “This effect was abrogated when spheroids were treated with mitomycin C.” left out
In general terms: Incorporation of labelled thymidine or its analogues reports DNA synthesis.

A further data set concerns endothelial cells (ECs). The data set can be described thus: 3H palmitate oxidation assay (fatty acid oxidation, 3H-9,10-palmitic acid tracer). In kind it is cell-based.
Text: as §2, §3

Data set [4] deals with ECs. The experiment in a line: Scratch wound assay and modified Boyden chamber (EC migration). The class given is cell-based. As to conditions: scratch wound assay, modified Boyden chamber.
Text: as §1, with “This effect was abrogated when spheroids were treated with mitomycin C.” left out

For data set [5], the system named is ECs. The data set can be described thus: Energy charge, ATP levels and AMPK phosphorylation in ECs. In kind it is cell-based. The source says: Next, how fatty acid oxidation could exert its proliferation-dependent effects on vessel sprouting was questioned. Through fueling the TCA with […] molecules of acetyl-COA, 1 palmitate can generate much more ATP via oxidative phosphorylation compared to 1 glucose. However, as was shown previously, angiogenic ECs rely primarily on glycolysis for ATP production. Nevertheless, it was desired to rule out that the CPT1a-induced proliferation defect was caused by ATP depletion. […] One would also expect that whenever cells are in ATP distress, they would up-regulate a major ATP-producing pathway. […] Furthermore, no signs of energy distress were observed, as shown by AMPK-p, and no induction of autophagy was observed as measured by LC3.

Data set [6] deals with ECs. The data set can be described thus: Intracellular H2O2 levels in ECs. The class given is cell-based. The source says:
Proliferation requires many building blocks such as protein, RNA, DNA, . . . to allow duplication of one cell into two daughter cells. Up until now, the role of mitochondria in ECs was thought to be for signaling purposes and not so much for biomass production, as ECs are highly glycolytic. […] FAO can fuel the TCA cycle with […] molecules of acetyl COA, thereby providing plenty of intermediates for biomass as well as producing NADPH that can be used for anti-oxidant defense or lipid synthesis. […] However, this increase in ROS could not explain the proliferation defect as no DNA damage checkpoint was activated in these cells as measured by ATM-P, p53 and p21 levels. […] Therefore, it was hypothesized that blocking FAO would reduce TCA intermediates needed for biomass production. Even more, using ^13C palmitate, it was shown that CPT1a KD cells incorporate less 13C label in TCA intermediates and in biomass.

Where two headings read alike, the source gives them in different places.

Consider `CC(=O)N[C@@H](CS)C(=O)O` [NAC], for which the “rescue of reduced sprouting upon CPT1a silencing in quiescent spheroids” value with EC spheroids (NICD overexpression model of quiescence) is “did rescue the phenotype”.
On to `CC(=O)O` [acetate], for which the “rescue of reduced sprouting of CPT1a knock down spheroids” value with EC spheroids (20 mM supplementation) is “rescued”.
As to `CCOC(=O)[C@@]1(CCCCCCOc2ccc(Cl)cc2)CO1` [etomoxir], in data set [1], the “reduction of neovascularization area” value is on record as “less than 50%”. Moreover, the “pathological neovascular area (in words)” value in data set [1] (p<0.05) is “reduced the pathological neovascular area”. Besides, in [2], the “defects in the heart (H&E staining)” value is recorded as “did not cause any defects in the heart”. In addition, in data set [3], the “14C palmitate uptake in organs” value was “significantly reduced” and the “incorporation of 13C palmitate in TCA intermediates in organs” value is given as “significantly reduced”.
With “shCPT1a: shRNA directed against CPT1a, SEQ ID NO:1: 5'-CCGGGCCATGAAGCTCTTAGACAAACTCGAGTTTGTCTAAGAGCTTCATGGCTTTTTG-3'”, the CPT1a protein levels result with CPT1a was “nearly undetectable levels”. Also, the “proliferation (in words)” value with angiogenic EC monolayers was “reduced proliferation”. In addition, the “reduction of EC proliferation” value with angiogenic EC monolayers (angiogenic EC monolayers) is given as 40%. The fatty acid oxidation result is “reduced fatty acid oxidation” with endothelial cells (ECs) and “significantly reduced” in the data set with endothelial cells (ECs) (listed as shRNA directed against CPT1a). The EC migration result with ECs [4] was “no differences in migration”; in the data set with ECs [4] (listed as CPT1a KD), “not affected”. The “ATP distress (Western blot for AMPK phosphorylation)” value in the data set on ECs [5] is “does not show any ATP distress”. Also, the energy charge entry in the data set with ECs [5] is “did not affect”. Also, the “vessel sprouting of EC spheroids” value in the data set with EC spheroids (collagen I matrix, growth factor stimulated) is “fewer and shorter sprouts”. In addition, the “increase in intracellular H2O2 levels” value in the data set on ECs [6] came to 40%.

(Values after US20160166532A1, “CARNITINE PALMITOYLTRANSFERASE 1 INHIBITORS FOR INHIBITION OF PATHOLOGICAL ANGIOGENESIS” (VIB VZW, priority 2013, published 2016).)
